Laboratory results taken from article PMC6337588, “Multi-Target Cinnamic Acids for Oxidative Stress and Inflammation: Design, Synthesis, Biological Evaluation and Modeling Studies” (Molecules, 2018).
“And” between values parts separate entries of the source, which are not always exact repeats. Equal values may be shown once.

Assays:
[1] = Reducing activity of the stable radical DPPH; assay type: biochemical
Experimental: The substituted acids were monitored for the antioxidant activity by the use of the stable 2,2-diphenyl-1-picrylhydrazyl radical (DPPH) at concentration 50 µM and 100 µM after 20 and 60 min (Table 1). In this assay the DPPH radical is reduced by single electron transfer from the antioxidant. Strong antioxidants are the phenoxide anions from phenolic compounds like catechol and derivatives, such as nordihydroguaretic acid (NDGA), the reference compound. The compounds presented medium reducing abilities from 29–61%, due to steric reasons; small differences were found among the compounds with time and concentration. 4-Br-substituted-3 phenyl acetic acid derivatives (Series I) are equipotent to 4-OH-substituted-3 phenyl acetic acid derivatives (Series II). No differences were observed between 4i and 5i and 4ii and 5ii.
To a solution of DPPH in absolute ethanol an equal volume of the compounds dissolved in DMSO was added. The final concentrations of the measured solutions of the novel acids were 50 and 100 µM starting from a stock solution (10 mM) in DMSO. The absorbance was recorded at 517 nm, after 20 and 60 min at room temperature (Table 1).

[2] = ABTS+• decolorization assay; assay type: biochemical; details: 1 min, 734 nm
Experimental: No role for lipophilicity was found. Oxidation of ABTS with potassium persulfate generates directly the ABTS radical cation (ABTS^+•) with no involvement of an intermediary radical, which is then reduced upon adding electron-donating antioxidants.
In order to produce the ABTS radical cation (ABTS^+•), ABTS stock solution in water (7 mM) was mixed with potassium persulfate (2.45 mM) and left in the dark at room temperature for 12–16 h before use. Our published experimental technique was used (Table 2). The results are recorded after 1 min of the mixing solutions at 734 nm. The results were compared to the appropriate standard inhibitor Trolox.

[3] = Experimental lipophilicity as RM values by reversed phase TLC (RPTLC); assay type: physicochemical; details: methanol/water 77/23 with 0.1% acetic acid, 24 °C, average of at least 5 measurements
Text: Lipophilicity is a physicochemical property correlated with the biological activity. Lipophilicity influences ligand-target binding interactions, solubility, absorption, distribution, bioavailability, metabolism and elimination (ADME) and toxicological outcomes. The lipophilicity of the novel cinnamic acids was experimentally measured as RM values using a reverse phase thin layer chromatography (RPTLC) method. This is acknowledged as a reliable, fast and convenient approach for expressing lipophilicity (Table 1). RM relates to the thermodynamic Rf value in a logarithmic form. Bate-Smith and Westall firstly determined lipophilicity as RM values in 1950 [31]. The Br-substituted derivatives 1i–7i are more lipophilic than the OH-substituted ones 1ii–7ii which can be easily explained by their structural characteristics.
Reversed phase TLC (RPTLC) was performed on silica gel plates impregnated with 55% (v/v) liquid paraffin in light petroleum ether. The mobile phase was a methanol/water mixture (77/23, v/v) containing 0.1% of acetic acid. The plates were developed in closed chromatography tanks saturated with the mobile phase at 24 °C. Spots were detected under UV light. RM values were determined from the corresponding Rf values (from five individual measurements) using the equation RM = log[(1/Rf) − 1] [17, 18, 28].

[4] = Competition with DMSO for hydroxyl radicals (Fe3+/ascorbic acid system); assay type: biochemical; details: hydroxyl radical scavenging
Experimental: Competition of the novel substituted acids with DMSO for hydroxyl radicals was measured. Hydroxyl radicals were generated using the Fe^3+/ascorbic acid system and expressed as a percentage inhibition of formaldehyde production in the presence of each compound at 100 μM (Table 2). All the synthesized derivatives strongly scavenge hydroxyl radicals at 100 μM in comparison to the reference compound Trolox.
The hydroxyl radicals generated by the Fe^3+/ascorbic acid system, were detected by the determination of formaldehyde produced from the oxidation of DMSO (Table 2). Trolox was used as reference compound [17, 18, 28].

[5] = molecular target: T1, soybean lipoxygenase (Glycine max, UniProt P08170); experiment: Soybean lipoxygenase inhibition in vitro; assay type: biochemical; details: sodium linoleate 0.1 mM, 234 nm, read-out: LOX IC50
T1 construct: purchased Sigma Chemical, Co. (St. Louis)
T1 sequence (P08170 1-839): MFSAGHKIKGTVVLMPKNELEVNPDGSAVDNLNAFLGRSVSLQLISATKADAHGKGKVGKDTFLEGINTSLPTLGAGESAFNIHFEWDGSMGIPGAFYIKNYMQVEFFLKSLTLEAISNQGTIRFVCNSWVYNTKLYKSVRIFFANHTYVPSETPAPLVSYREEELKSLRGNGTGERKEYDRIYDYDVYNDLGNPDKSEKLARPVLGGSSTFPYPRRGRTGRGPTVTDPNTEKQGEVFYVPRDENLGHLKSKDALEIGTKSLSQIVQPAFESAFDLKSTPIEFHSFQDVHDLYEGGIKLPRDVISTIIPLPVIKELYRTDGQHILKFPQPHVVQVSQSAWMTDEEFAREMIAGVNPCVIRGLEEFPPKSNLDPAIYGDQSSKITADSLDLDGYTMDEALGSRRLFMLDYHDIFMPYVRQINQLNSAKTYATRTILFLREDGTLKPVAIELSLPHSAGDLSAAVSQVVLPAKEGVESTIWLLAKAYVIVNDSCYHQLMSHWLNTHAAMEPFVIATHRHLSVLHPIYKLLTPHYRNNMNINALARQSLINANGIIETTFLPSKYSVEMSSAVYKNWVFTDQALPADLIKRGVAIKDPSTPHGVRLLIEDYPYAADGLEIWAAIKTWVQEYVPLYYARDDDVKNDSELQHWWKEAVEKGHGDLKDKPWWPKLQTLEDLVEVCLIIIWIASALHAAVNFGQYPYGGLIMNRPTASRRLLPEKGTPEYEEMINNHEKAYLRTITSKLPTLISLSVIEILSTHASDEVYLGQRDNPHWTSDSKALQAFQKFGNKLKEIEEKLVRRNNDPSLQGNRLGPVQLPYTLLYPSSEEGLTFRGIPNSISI
Experimental: Many research groups have used readily obtainable soybean lipoxygenase, which is a homologue of mammalian lipoxygenase and well studied. Due to its availability and its well-characterised crystal structure, soybean LOX was selected to be used in this study.
In vitro study was evaluated as reported previously by our group. The tested compounds were incubated at room temperature with sodium linoleate (0.1 mM) and 0.2 mL of enzyme solution (1/9 × 104 w/v in saline). The method was based to the conversion of sodium linoleate to 13-hydroperoxylinoleic acid at 234 nm. […] In order to determine the IC50 values different concentrations were used.

[6] = Non enzymatic assay of superoxide radical scavenging activity (PMS/NADH/NBT); assay type: biochemical
Experimental: Superoxide radical is a main cause of oxidative stress, expressing its biological toxicity by the inactivation of iron-sulfur cluster containing enzymes. The superoxide anion radical (O2^−^•) is less toxic than the hydroxyl radical, but still being one of the most known toxic reactive oxygen species (ROS). In this assay the superoxide anion radicals were generated by a non-enzymatically assay and the compounds are tested at 100 μM final concentration (Table 2). Caffeic acid (CA) has been used as a reference compound. Compound 4ii presented the highest activity, followed by compound 3ii. We succeeded to derive a quantitative-structure activity relationship model for this activity in which the topological polar surface (TPAS) of the compounds seem to govern the superoxide anion scavenging activity:% Superoxide Anion Scavenging Activity (100 µM) = 0.019 (±0.007) TPSA + 0.813 (±0.358) n = 6, r = 0.962, r^2 = 0.926, q^2 = 0.694, s = 0.122, Q = 7.885, F1,6 = 3.701, α = 0.1 clog P vs. TPSA 0.
The superoxide radicals are generated by mixing N-methylphenazonium methyl sulfate (PMS), NADH and air–oxygen and determined by the nitroblue tetrazolium method and measured at 560 nm (Table 2). Caffeic acid was used as reference compound [17, 18, 28].

[7] = Inhibition of linoleic acid peroxidation (AAPH); assay type: biochemical; details: anti-lipid peroxidation
Text: We also used water-soluble 2,2′-[…](2-amidinopropane) hydrochloride (AAPH) for the generation of free radicals. AAPH has been extensively used as a clean and controllable source of thermally produced alkylperoxyl free radicals. The peroxyl radicals produced by the action of AAPH show total similarity to cellular activities such as lipid peroxidation. […] It seems that the presence of 3,5-di-tert-butyl-group greatly enhances protection against lipid peroxidation (6i/ii and 7i/ii followed by 3ii and 5ii). The lipid peroxidation inhibitory activity seems to be concentration dependent.
2,2’-Azobis(2-amidinopropane) dihydrochloride (AAPH) was used as a free radical initiator to start the oxidation reaction. The method was based on the production of conjugated diene hydroperoxide by oxidation of linoleic acid at 234 nm expressed as an increased absorption. Trolox was used as reference compound (93%) (Table 2).

SMILES | melting point [°C] | RA% 50 µM 20 min [1] [%] | RA% 50 µM 60 min [1] [%] | RA% 100 µM 20 min [1] [%] | RA% 100 µM 60 min [1] [%] | ABTS+•% 100 µM [2] | RM (±SD) [3] | HO•% 100 µM [4] [%] | IC50 [5] [µM] | O2−•% 100 µM [6] [%] | AAPH% 50 µM [7] [%] | AAPH% 100 µM [7] [%] | AAPH lipid peroxidation inhibition at 10 μΜ ([7]; 10 μΜ) [%]
CN(C)c1ccc(C=CC=C(C(=O)O)c2ccc(O)cc2)cc1 [Compound 3ii, 5-(4-(Dimethylamino)phenyl)-2-(4-hydroxyphenyl)penta-2,4-dienoic acid] | 204 to 205 | 43 | 35 | 44 | 46 | 63% | −0.642 (0.032) | 99 | 89 | 85 | 71 | 95 | –
CC(C)(C)c1cc(C=C(C(=O)O)c2ccc(O)cc2)c(O)c(C(C)(C)C)c1 [Compound 6ii, 3-(3,5-di-tert-Butyl-2-hydroxyphenyl)-2-(4-hydroxyphenyl)acrylic acid] | 134 to 136 | 43 | 36 | 31 | 36 | 38% | 0.622 (0.025) | 100 | 74 | – | 64 | 96 | –
O=C(O)C(=Cc1ccc(OCc2ccc(Br)cc2)cc1)c1ccc(Br)cc1 [Compound 2i, 3-(4-((4-Bromobenzyl)oxy)phenyl)-2-(4-bromophenyl)acrylic acid] | – | 35 | 34 | 37 | 40 | 32% | 0.605 (0.016) | 95 | 76 | – | 48 | 96 | –
CC(Cc1ccc(O)c(O)c1)C(C)Cc1ccc(O)c(O)c1 (stereo not shown) [NDGA, nordihydroguaretic acid, reference compound] | – | 81 | 83 | 87 | 93 | – | – | – | – | – | – | – | –
CC(C)(C)c1cc(C=C(C(=O)O)c2ccc(Br)cc2)c(O)c(C(C)(C)C)c1 [Compound 6i, 2-(4-Bromophenyl)-3-(3,5-di-tert-butyl-2-hydroxyphenyl)acrylic acid] | 168 to 170 | 38 | 36 | 44 | 39 | 53% | 0.480 (0.035) | 100 | 60 | – | 56 | 100 | –
O=C(O)C(=Cc1ccc(OCc2ccc(Br)cc2)cc1)c1ccc(O)cc1 [Compound 2ii, 3-(4-((4-Bromobenzyl)oxy)phenyl)-2-(4-hydroxyphenyl)acrylic acid] | – | 36 | 37 | 43 | 56 | 47% | 0.061 (0.007) | 99 | 77 | – | 49 | 87 | –
Cc1c(C)c2c(c(C)c1O)CCC(C)(C(=O)O)O2 (stereo not shown) [Trolox, reference compound] | – | – | – | – | – | 88% | – | 73 | – | – | – | 93 | –
CC(=Cc1ccccc1)C=C(C(=O)O)c1ccc(Br)cc1 [Compound 5i, 2-(4-Bromophenyl)-4-methyl-5-phenylpenta-2,4-dienoic acid] | 128 to 129 | 33 | 33 | 36 | 38 | 30% | 0.683 (0.015) | 82 | 77.5 | – | 10 | 98 | 9.6
O=C(O)/C=C/c1ccc(O)c(O)c1 [CA, Caffeic acid, reference compound] | – | – | – | – | – | – | – | – | – | 23 | – | – | –
CN(C)c1ccc(C=CC=C(C(=O)O)c2ccc(Br)cc2)cc1 [Compound 3i, 2-(4-Bromophenyl)-5-(4-(dimethylamino)phenyl)penta-2,4-dienoic acid] | 120 to 121 | 34 | 37 | 48 | 51 | 83.4% and 83% | 0.582 (0.037) | 100 | 7.4 | – | 43 | 88 | –
